Reference: BindingDB's records for PubMed 35766919 (Zhejiang University, 2022)

Target: Maltase-glucoamylase (Homo sapiens, UniProt O43451)
Test: Inhibition of alpha-glucosidase (unknown origin) using p-nitrophenyl-alpha-D-glucopyranoside as substrate incubated for 10 mins followed by substrate addition and measured after 15 mins by microplate reader analysis

Sequence of Maltase-glucoamylase (O43451 whole entry): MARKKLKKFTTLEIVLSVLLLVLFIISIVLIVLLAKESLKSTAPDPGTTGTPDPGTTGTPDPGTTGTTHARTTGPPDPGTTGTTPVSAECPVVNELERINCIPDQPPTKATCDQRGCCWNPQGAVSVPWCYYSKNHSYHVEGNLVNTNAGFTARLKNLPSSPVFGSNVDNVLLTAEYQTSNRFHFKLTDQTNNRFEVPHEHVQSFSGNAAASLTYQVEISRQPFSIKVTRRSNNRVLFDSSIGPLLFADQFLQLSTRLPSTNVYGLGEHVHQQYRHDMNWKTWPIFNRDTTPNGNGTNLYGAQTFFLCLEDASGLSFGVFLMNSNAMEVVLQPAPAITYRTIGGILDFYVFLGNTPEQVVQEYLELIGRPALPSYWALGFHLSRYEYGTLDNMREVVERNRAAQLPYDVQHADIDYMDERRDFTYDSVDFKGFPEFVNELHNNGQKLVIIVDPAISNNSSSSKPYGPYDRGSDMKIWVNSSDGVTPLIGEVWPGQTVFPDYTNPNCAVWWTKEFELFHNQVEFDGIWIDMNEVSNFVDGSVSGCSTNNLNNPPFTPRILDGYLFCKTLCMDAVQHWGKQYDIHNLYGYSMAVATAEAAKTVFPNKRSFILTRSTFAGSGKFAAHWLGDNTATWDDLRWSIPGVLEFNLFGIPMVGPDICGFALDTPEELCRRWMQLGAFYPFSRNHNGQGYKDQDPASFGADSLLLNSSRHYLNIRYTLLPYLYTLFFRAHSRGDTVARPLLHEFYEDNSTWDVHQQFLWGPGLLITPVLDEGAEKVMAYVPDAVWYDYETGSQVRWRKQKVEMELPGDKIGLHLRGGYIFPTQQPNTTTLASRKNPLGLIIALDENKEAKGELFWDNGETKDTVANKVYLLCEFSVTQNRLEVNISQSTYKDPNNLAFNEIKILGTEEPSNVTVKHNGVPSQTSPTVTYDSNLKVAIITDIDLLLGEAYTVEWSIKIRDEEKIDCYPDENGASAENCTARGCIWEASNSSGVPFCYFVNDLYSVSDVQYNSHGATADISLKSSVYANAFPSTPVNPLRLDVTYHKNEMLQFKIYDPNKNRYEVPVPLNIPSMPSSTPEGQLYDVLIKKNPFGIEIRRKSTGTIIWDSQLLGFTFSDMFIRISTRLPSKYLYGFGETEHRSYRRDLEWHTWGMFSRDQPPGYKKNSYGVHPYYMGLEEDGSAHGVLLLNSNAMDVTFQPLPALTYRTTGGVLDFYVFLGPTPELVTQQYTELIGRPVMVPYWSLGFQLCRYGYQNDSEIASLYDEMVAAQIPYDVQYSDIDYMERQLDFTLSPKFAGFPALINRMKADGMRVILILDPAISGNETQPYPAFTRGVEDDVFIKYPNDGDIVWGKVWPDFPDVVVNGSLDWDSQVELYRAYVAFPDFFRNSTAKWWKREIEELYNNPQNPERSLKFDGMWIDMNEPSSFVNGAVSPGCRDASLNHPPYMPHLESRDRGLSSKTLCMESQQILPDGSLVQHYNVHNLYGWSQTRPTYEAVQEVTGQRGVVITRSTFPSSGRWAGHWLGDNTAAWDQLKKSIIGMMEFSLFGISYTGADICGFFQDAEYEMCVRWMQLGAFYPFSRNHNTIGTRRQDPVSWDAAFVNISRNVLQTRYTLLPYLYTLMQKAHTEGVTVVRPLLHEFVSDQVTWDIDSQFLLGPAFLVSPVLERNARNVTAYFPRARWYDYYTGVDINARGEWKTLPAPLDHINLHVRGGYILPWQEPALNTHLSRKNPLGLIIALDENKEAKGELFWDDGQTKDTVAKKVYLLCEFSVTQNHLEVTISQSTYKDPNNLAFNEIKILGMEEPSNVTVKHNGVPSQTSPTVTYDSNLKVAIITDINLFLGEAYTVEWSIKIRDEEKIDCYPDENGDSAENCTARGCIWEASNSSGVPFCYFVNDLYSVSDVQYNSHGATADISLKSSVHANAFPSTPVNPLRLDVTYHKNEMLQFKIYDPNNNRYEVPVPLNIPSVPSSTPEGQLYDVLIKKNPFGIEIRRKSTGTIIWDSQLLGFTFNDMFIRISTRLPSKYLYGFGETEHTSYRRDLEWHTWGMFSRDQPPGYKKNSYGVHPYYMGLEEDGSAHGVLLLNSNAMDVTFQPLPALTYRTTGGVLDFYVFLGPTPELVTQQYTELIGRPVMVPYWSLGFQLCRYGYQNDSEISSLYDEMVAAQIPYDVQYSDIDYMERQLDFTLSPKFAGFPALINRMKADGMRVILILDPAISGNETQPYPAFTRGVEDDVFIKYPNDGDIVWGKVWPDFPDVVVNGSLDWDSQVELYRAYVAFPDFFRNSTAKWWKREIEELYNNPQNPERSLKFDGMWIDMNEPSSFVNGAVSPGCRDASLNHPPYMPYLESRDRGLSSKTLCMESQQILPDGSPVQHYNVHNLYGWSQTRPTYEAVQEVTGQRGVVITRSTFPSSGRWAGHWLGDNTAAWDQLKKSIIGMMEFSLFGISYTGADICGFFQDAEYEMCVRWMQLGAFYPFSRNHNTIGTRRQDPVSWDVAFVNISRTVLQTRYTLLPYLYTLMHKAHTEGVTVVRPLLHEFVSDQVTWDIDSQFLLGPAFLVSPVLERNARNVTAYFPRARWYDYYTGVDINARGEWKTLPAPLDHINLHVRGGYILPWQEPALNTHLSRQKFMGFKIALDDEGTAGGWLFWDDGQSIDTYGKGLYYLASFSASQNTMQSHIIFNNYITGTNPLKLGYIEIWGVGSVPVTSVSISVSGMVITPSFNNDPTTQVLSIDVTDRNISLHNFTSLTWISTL

| Compound | IC50 |
| --- | --- |
| Cc1cc(O)c2c(c1)-c1c(-c3ccc(O)cc3)c(=O)oc3c1c-2c(O)c1cccc(O)c13 | 890 nM |
| Cc1cc(O)c2c(c1)-c1c(-c3c[nH]c4ccccc34)c(=O)oc3c1c-2c(O)c1cccc(O)c13 | 1580 nM |
